Experimental findings from US20240309016A1, “MACROCYCLIC HETEROCYCLE COMPOUNDS AND USE THEREOF” (TAKEDA PHARMACEUTICAL COMPANY LIMITED, priority 2023, published 2024) are described below.

The assay has as its target T1, human OX2 receptor (Homo sapiens, UniProt O43614).
T1 construct: expressed in transfected cells
T1 sequence (O43614 1-444): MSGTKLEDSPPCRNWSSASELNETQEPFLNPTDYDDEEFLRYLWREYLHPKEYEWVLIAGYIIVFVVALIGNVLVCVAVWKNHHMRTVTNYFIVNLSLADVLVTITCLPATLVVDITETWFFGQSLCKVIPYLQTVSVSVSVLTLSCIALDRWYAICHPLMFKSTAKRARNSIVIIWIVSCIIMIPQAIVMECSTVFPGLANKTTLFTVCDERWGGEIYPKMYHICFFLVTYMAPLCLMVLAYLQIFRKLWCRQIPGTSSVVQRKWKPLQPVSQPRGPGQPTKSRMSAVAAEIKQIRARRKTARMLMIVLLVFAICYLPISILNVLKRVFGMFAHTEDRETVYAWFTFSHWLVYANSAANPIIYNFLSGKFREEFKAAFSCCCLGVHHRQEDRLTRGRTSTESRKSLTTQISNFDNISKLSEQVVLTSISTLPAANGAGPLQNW
Nature of the assay: Measurement of orexin type 2 receptor agonist activity (Experimental Example 2; Fluo-4 AM calcium fluorescence, FDSS μCELL). The assay is classed as cell-based. The note with it: compound at 3 μM; CHO cells expressing human OX2 receptor; DMSO = 0%, 10 nM orexin A (human) = 100%. The protocol: In order to obtain cell clones that stably express human orexin type 2 receptor, human orexin type 2 (residues 1-444, NCBI Reference Sequence: AK314279) was constructed in a pcDNA3.1 (+) vector (Invitrogen) to express in mammalian cells. This plasmid DNA was transfected into CHO-K1 cells by electroporation, and stable clones were obtained by limiting dilution using resistance to G418 as a selection marker.
CHO cells in which human OX2 receptor was forcibly expressed were seeded at 10,000 cells/well into a 384-well black transparent bottom plate (BD falcon), and were incubated at 37° C., 5% CO2 for 1 day after incubation at room temperature for 30 minutes. After removing the cell plate medium, assay buffer containing calcium indicator A (HBSS (Thermo Fisher Scientific), 20 mM HEPES (Thermo Fisher Scientific), 0.1% BSA (Sigma-Aldrich), 2.5 μg/mL Fluo-4 AM (Dojin Kagaku), 0.08% Pluronic F127 (Dojin Kagaku), 1.25 mM probenecid (Dojin Kagaku)) was added at 30 μL/well. After incubation in a 5% CO2 incubator at 37° C. for 30 minutes, it was incubated at room temperature for another 30 minutes. Add 10 μL/well of the test compound diluted with assay buffer B (HBSS, 20 mM HEPES, 0.1% BSA), and use FDSS μCELL (Hamamatsu Photonics) to measure the fluorescence value every 1 second for 1 minute, and then every 2 seconds for 1 minute. It was measured for 1 minute and 40 seconds. The amount of fluorescence value when DMSO is added instead of the test compound is defined as 0%, and the amount of fluorescence value when orexin A (human) (Peptide Institute) with a final concentration of 10 nM is added is defined as 100%. The activity (%) of the test compound was calculated. Table 2-1, 2-2, 2-3, and 2-4 show the activity of each compound at a concentration of 3 μM.
For the molecule `Cc1cnc2nc1Oc1cccc(c1F)C[C@H]1[C@@H](NS(C)(=O)=O)C(F)(F)CN1C(=O)CN2C` [Example 75, N-[(15aS,16R)-17,17,20-trifluoro-3,7-dimethyl-1-oxo-2,3,15a,16,17,18-hexahydro-1H,15H-4,8-(azeno)-10,14-(metheno)pyrrolo[1,2-j][1,5,7,10]oxatriazacyclo-heptadecin-16-yl]methanesulfonamide], the “OX2R agonist activity (3 μM, %)” value is on record as 95%.

Consider `CCS(=O)(=O)N[C@H]1[C@@H](F)CN2C(=O)NCc3ccc(C)c(n3)Oc3cccc(c3F)C[C@@H]12` [Example 25, N-[(15aS,16R,17S)-17,20-difluoro-7-methyl-1-oxo-2,3,15a,16,17,18-hexahydro-1H,15H-4,8-(azeno)-14,10-(metheno)pyrrolo[1,2-j][1,8,10]oxadiazacyclo-heptadecin-16-yl]ethanesulfonamide], for which the “OX2R agonist activity (3 μM, %)” value is on record as 105%.

`CCS(=O)(=O)N[C@H]1[C@@H](F)CN2C(=O)N(C)Cc3ccc(Cl)c(n3)Oc3cccc(c3)C[C@@H]12` [Example 70, N-[(15aS,16R,17S)-7-chloro-17-fluoro-2-methyl-1-oxo-2,3,15a,16,17,18-hexahydro-1H,15H-4,8-(azeno)-10,14-(metheno)pyrrolo[1,2-j][1,8,10]oxadiazacyclo-heptadecin-16-yl]ethanesulfonamide]: the “OX2R agonist activity (3 μM, %)” value is on record as 103%.

Turning to `CS(=O)(=O)N[C@H]1[C@@H](F)CN2C(=O)NCc3ccc(C(F)F)c(n3)Oc3cccc(c3F)C[C@@H]12` [Example 18, N-[(15aS,16R,17S)-7-(difluoromethyl)-17,20-difluoro-1-oxo-2,3,15a,16,17,18-hexahydro-1H,15H-8,4-(azeno)-10,14-(metheno)pyrrolo[1,2-j][1,8,10]oxadiazacyclo-heptadecin-16-yl]methanesulfonamide], the “OX2R agonist activity (3 μM, %)” value is 104%.

Turning to `CS(=O)(=O)N[C@@H]1[C@@H]2Cc3cccc(c3)Oc3nc(ccc3Cl)CNC(=O)N2CC1(F)F` [Example 92, N-[(15aS,16R)-7-chloro-17,17-difluoro-1-oxo-2,3,15a,16,17,18-hexahydro-1H,15H-4,8-(azeno)-14,10-(metheno)pyrrolo[1,2-j][1,8,10]oxadiazacyclohepta-decin-16-yl]methanesulfonamide], the “OX2R agonist activity (3 μM, %)” value was determined as 106%.

Regarding `CCS(=O)(=O)N[C@@H]1[C@@H]2Cc3cccc(c3F)Oc3nc(ccc3Cl)CNC(=O)N2CC1(F)F` [Example 17, N-[(15aS,16R)-7-chloro-17,17,20-trifluoro-1-oxo-2,3,15a,16,17,18-hexahydro-1H,15H-4,8-(azeno)-14,10-(metheno)pyrrolo[1,2-j][1,8,10]oxadiazacyclo-heptadecin-16-yl]ethanesulfonamide], the “OX2R agonist activity (3 μM, %)” value came out at 100%.

Turning to `CCS(=O)(=O)N[C@@H]1[C@@H]2Cc3cccc(c3F)Oc3ccc(F)c(n3)CNC(=O)N2CC1(F)F` [Example 50, N-[(15aS,16R)-5,17,17,20-tetrafluoro-1-oxo-2,3,15a,16,17,18-hexahydro-1H,15H-4,8-(azeno)-14,10-(metheno)pyrrolo[1,2-j][1,8,10]oxadiazacyclo-heptadecin-16-yl]ethanesulfonamide], the “OX2R agonist activity (3 μM, %)” value was determined as 88%.

As to `CN(C)S(=O)(=O)N[C@@H]1[C@@H]2Cc3cccc(c3F)Oc3nc(ccc3Cl)CNC(=O)N2CC1(F)F` [Example 13, N′-[(15aS,16R)-7-chloro-17,17,20-trifluoro-1-oxo-2,3,15a,16,17,18-hexahydro-1H,15H-4,8-(azeno)-14,10-(metheno)pyrrolo[1,2-j][1,8,10]oxadiazacyclo-heptadecin-16-yl]-N,N-dimethylsulfuric diamide], the “OX2R agonist activity (3 μM, %)” value is listed as 99%.

In the case of `CCS(=O)(=O)N[C@@H]1[C@@H]2Cc3cc(ccc3F)Oc3nc(ccc3C)CNC(=O)N2CC1(F)F` (relative stereo) [Example 90, N-[rel-(15aS,16R)-13,17,17-trifluoro-7-methyl-1-oxo-2,3,15a,16,17,18-hexahydro-1H,15H-4,8-(azeno)-14,10-(metheno)pyrrolo[1,2-j][1,8,10]oxadiazacyclohepta-decin-16-yl]ethanesulfonamide (optical isomer)], the “OX2R agonist activity (3 μM, %)” value is listed as 108%.

For “N-[(15aS,16R)-17,17- difluoro-7-methyl-1-oxo- 2,3,15a,16,17,18-hexahydro- 1H,15H-4,8-(azeno)-10,14- (metheno)pyrrolo[1,2- j][1,8,10]oxadiazacyclo- heptadecin-16- yl]ethanesulfonamide [Example 6]”, the “OX2R agonist activity (3 μM, %)” value is listed as 99%.

Consider `CCS(=O)(=O)N[C@H]1[C@@H](F)CN2C(=O)COc3ccc(C)c(n3)Oc3cccc(c3)C[C@@H]12` [Example 78, N-[(15aS,16R,17S)-17-fluoro-7-methyl-1-oxo-1,2,15a,16,17,18-hexahydro-15H-4,8-(azeno)-14,10-(metheno)pyrrolo[1,2-d][1,12,4]dioxazacyclo-heptadecin-16-yl]ethanesulfonamide], for which the “OX2R agonist activity (3 μM, %)” value came out at 97%.

For the molecule `CCS(=O)(=O)N[C@@H]1[C@@H]2Cc3cccc(c3F)Oc3nc(ccc3C)C(C)NC(=O)N2CC1(F)F` (stereo partly drawn) [Example 49, N-[(15aS,16R)-17,17,20-trifluoro-3,7-dimethyl-1-oxo-2,3,15a,16,17,18-hexahydro-1H,15H-4,8-(azeno)-14,10-(metheno)pyrrolo[1,2-j][1,8,10]oxadiazacyclo-heptadecin-16-yl]ethanesulfonamide (optical isomer)], the “OX2R agonist activity (3 μM, %)” value worked out at 97%.

For the molecule `CS(=O)(=O)N[C@@H]1[C@@H]2Cc3cccc(c3F)Oc3nc(ccc3Cl)OCC(=O)N2CC1(F)F` [Example 62, N-[(15aS,16R)-7-chloro-17,17,20-trifluoro-1-oxo-1,2,15a,16,17,18-hexahydro-15H-4,8-(azeno)-14,10-(metheno)pyrrolo[1,2-d][1,12,4]dioxazacyclo-heptadecin-16-yl]methanesulfonamide], the “OX2R agonist activity (3 μM, %)” value is recorded as 102%.

Regarding `CS(=O)(=O)N[C@@H]1[C@@H]2Cc3cccc(c3)Oc3nc(ccc3Cl)OCC(=O)N2CC1(F)F` [Example 96, N-[(15aS,16R)-7-chloro-17,17-difluoro-1-oxo-1,2,15a,16,17,18-hexahydro-15H-4,8-(azeno)-14,10-(metheno)pyrrolo[1,2-d][1,12,4]dioxazacyclo-heptadecin-16-yl]methanesulfonamide], the “OX2R agonist activity (3 μM, %)” value was found to be 107%.

As to `CCS(=O)(=O)N[C@H]1[C@@H](F)CN2C(=O)NCc3ccc(F)c(n3)Oc3cccc(c3F)C[C@@H]12` [Example 31, N-[(15aS,16R,17S)-7,17,20-trifluoro-1-oxo-2,3,15a,16,17,18-hexahydro-1H,15H-4,8-(azeno)-14,10-(metheno)pyrrolo[1,2-j][1,8,10]oxadiazacyclo-heptadecin-16-yl]ethanesulfonamide], the “OX2R agonist activity (3 μM, %)” value worked out at 102%.

For the molecule `CS(=O)(=O)N[C@@H]1[C@@H]2Cc3cccc(c3F)Oc3nc(ccc3Cl)CNC(=O)N2CC1(F)F` [Example 14, N-[(15aS,16R)-7-chloro-17,17,20-trifluoro-1-oxo-2,3,15a,16,17,18-hexahydro-1H,15H-4,8-(azeno)-14,10-(metheno)pyrrolo[1,2-j][1,8,10]oxadiazacyclo-heptadecin-16-yl]methanesulfonamide], the “OX2R agonist activity (3 μM, %)” value is listed as 99%.

`CCS(=O)(=O)N[C@@H]1[C@@H]2Cc3cccc(c3)Oc3nc(ccc3Cl)CNC(=O)N2CC1(F)F` (relative stereo) [Example 53, N-[rel-(15aR,16S)-7-chloro-17,17-difluoro-1-oxo-2,3,15a,16,17,18-hexahydro-1H,15H-4,8-(azeno)-14,10-(metheno)pyrrolo[1,2-j][1,8,10]oxadiazacyclo-heptadecin-16-yl]ethanesulfonamide (optical isomer)]: the “OX2R agonist activity (3 μM, %)” value is 100%.

With `CS(=O)(=O)N[C@@H]1[C@@H]2Cc3cccc(c3F)Oc3nc(c(F)cc3Cl)CNC(=O)N2CC1(F)F` [Example 30, N-[(15aS,16R)-7-chloro-5,17,17,20-tetrafluoro-1-oxo-2,3,15a,16,17,18-hexahydro-1H,15H-4,8-(azeno)-14,10-(metheno)pyrrolo[1,2-j][1,8,10]oxadiazacyclo-heptadecin-16-yl]methanesulfonamide], the “OX2R agonist activity (3 μM, %)” value was found to be 102%.
